Measurements reported in patent publication US11883411B2 (priority 2022, dated 2024).
“Also recorded” adds a separate entry of the source.

How the values were obtained:
[1] = test system: ASFV fluorescent virus; format: cell-based, African swine fever virus (ASFV)
[2] = test system: ASFV fluorescent virus; assay: microbe, parasite or virus in culture; format: cell-based, African swine fever virus (ASFV)
[3] = test system: ASFV fluorescent virus; format: cell-based, African swine fever virus (ASFV); remark: listed apart in the source
[4] = test system: D1133L RNA of ASFV; format: cell-based
[5] = test system: D1133L protein of ASFV; format: cell-based
[6] = test system: p30 protein of ASFV; format: cell-based, African swine fever virus (ASFV)
[7] = test system: p72 protein of ASFV; format: cell-based, African swine fever virus (ASFV)
[8] = test system: PAM cells; details: pig

## C[C@@H](O[C@H]1OCCN(Cc2n[nH]c(=O)[nH]2)[C@H]1c1ccc(F)cc1)c1cc(C(F)(F)F)cc(C(F)(F)F)c1 [aprepitant, 5-[2(R)-[1(R)-[3,5-bis(trifluoromethyl)phenyl]ethoxy]-3(S)-(4-fluorophenyl)morpholino-4-ylmethyl]-3,4-dihydro-2H-1,2,4-triazol-3-one]
[1]
  fluorescence of ASFV fluorescent virus in infected cells: gradually becomes darker; also recorded: completely disappears
[2]
  ASFV genome copy number: reduced
[2]; African swine fever virus, 48 h, read-out: inhibition of ASFV genome copy number
  inhibition at 22 µM: > 50%
[3]
  TCID50 of ASFV fluorescent virus: reduce the TCID50; also recorded: minimum
[4]
  inhibition rate of D1133L RNA expression level: higher than 50%
[5]
  expression level of D1133L protein: significantly decreased
[6]
  expression level of p30 protein: significantly decreased
[7]
  expression level of p72 protein: significantly decreased
[8]
  cell viability: more than 50%
